Source: patent US6548715B1, “Structural analogues of vitamin D” (Laboratoire Theramex S.A., priority 1993, dated 2003)

Legend:
[1] = target: T1, vitamin D receptor (Sus scrofa, UniProt A3RGC1); settings: % of the activity of 1α,25-(OH)2D3 at 50% of its activity (B50); 1α,25-(OH)2D3 assigned 100%
T1 sequence (A3RGC1 1-427): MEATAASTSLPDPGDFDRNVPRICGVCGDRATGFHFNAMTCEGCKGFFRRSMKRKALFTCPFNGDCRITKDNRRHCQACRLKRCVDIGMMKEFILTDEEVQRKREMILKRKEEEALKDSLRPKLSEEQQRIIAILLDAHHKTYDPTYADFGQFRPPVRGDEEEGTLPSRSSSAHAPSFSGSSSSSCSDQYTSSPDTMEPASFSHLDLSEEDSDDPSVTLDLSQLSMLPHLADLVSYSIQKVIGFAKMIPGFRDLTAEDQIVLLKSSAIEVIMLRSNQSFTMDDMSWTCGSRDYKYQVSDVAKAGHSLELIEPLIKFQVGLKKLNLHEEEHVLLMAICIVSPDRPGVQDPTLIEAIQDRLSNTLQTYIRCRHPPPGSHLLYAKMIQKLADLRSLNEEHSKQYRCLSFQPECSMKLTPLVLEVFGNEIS

[2] = test system: HL-60 cells; assay: HL-60 cell differentiation (NBT reduction); assay type: cell-based; settings: % of the activity of 1α,25-(OH)2D3 at 50% of its activity (B50); human leukemia cells
Description: (§1) HL-60 cells were seeded at 1.2×10^5 cells/ml and 1α,25-(OH)2D3 or its anologs were added in ethanol (final concentration <0.2%) in RPMI 1640 medium supplemented with 10% heat-inactivated fetal calf serum (FCS) for 4 d at 37° C. Cells were then assayed for maturation by NBT reduction assay as described (22) using a hemacytometer, or for proliferation by cell counting and [^3H] thymidine incorporation. MG 63 cells, seeded at 5×10^3 cells/ml in 96 well flat bottomed culture plates (Falcon, Becton Dickinson, N.J.) in a volume of 0.2 ml of DMEM and 2% FCS, were incubated with 1α,25-(OH)2D3 or its analogues for 72 h. Osteocalcin was then measured in the culture medium using a homologous human osteocalcin RIA (39). Breast carcinoma cells (MCF-7 or GR) were grown in DMEM/nut.mix F-12 (HAM) medium supplemented with 10% FCS. Cells (5000/Well) were incubated during 24 h in 96 well tissue culture plates (Falcon 3072) followed by a 72 h incubation with/without 1α,25-(OH)2D3 or analogues. The cells were then incubated with [^3H]thymidine (1 μCi/well) for 4 h and harvested thereafter in NaOH (0.1 M) and the radioactivity counted. The protein content of the cells was measured by the Pierce BCA protein assay (Rockford, Ill.).

[3] = test system: human normal keratinocytes; assay: Human keratinocyte proliferation ([3H]thymidine incorporation); assay type: cell-based; settings: % of the activity of 1α,25-(OH)2D3 at 50% of its activity (B50)
Description: to evaluate the effects on cell proliferation of non-malignant cells and especially to evaluate their potential for use for dermatological disorders, the new compounds were tested in cultures of human normal keratinocytes.
Human skin keratinocytes were isolated and cultured using a modification of the method of Kitano and Okada (38).
Briefly, the skin from biopsies of patients with breast tumors, was cutted into pieces measuring 3-5 mm and soaked overnight at 4° C. in a solution of dispase (20 Boehringer units/ml). The epidermis was peeled from the dermis, washed with calcium- and magnesium-free phosphate buffered saline and incubated and shaked in a 0.25% trypsin solution for 10 min at room temperature. The reaction was then stopped by addition of PBS containing 10% FCS. The cells were collected after centrifugation at 4° C. for 10 min at 800 rpm. After an additional washing with PBS, the pellet was suspended in culture medium into 25 cm^2 primaria flasks from Becton Dickinson. The keratinocytes were cultivated at 37° C. in an atmosphere of 5% CO2 in air. A few hours later, the medium was replaced by new one. The medium [Keratinocyte Medium from Gibco containing Epidermal Growth Factor (5 ng/ml), Bovine Pituitary Extract (35-50 μg/ml) and antibiotics] was renewed every other day until confluency.
Keratinocytes were cultured in 96-well plate and, after 24 hours, were treated with various concentrations of vitamin D analogues, followed by pulse labelling with 1 μCi of [^3H]thymidine for 3 hours. Cultures were washed 3 times with PBS and twice with 10% (v/v) ice cold trichloroacetic acid. Cells were solubilized with 1 M NaOH and radioactivity was counted in a scintillation counter.

[4] = test system: vitamin D-deficient chicks; assay: Calcemic effect in vitamin D-deficient chicks (serum calcium); assay type: in vivo, chick; settings: % of the activity of 1α,25-(OH)2D3 at 50% of its activity (B50); vitamin D-deficient chicks injected 10 consecutive days
Description: The antirachitic activity of the analogues was tested in 3 weeks old vitamin D-deficient chicks injected for 10 consecutive days with 1α,25-(OH)2D3 or its analogues (22,23). Serum calcium (by atomic absorptiometry) and osteocalcin (by specific RIA), duodenal calbindin D-28K (by RIA) and bone calcium content were measured. The hypercalcemic effect of the most interesting anologues was also tested in vitamin D-replete normal NMRI mice by daily sc injection of 1α,25-(OH)2D3, its analogues or the solvent for 7 consecutive days, using serum, bone and urinary calcium excretion and serum osteocalcin (by specific mouse RIA) as parameters (40).

[5] = test system: MCF-7 cells; assay: MCF-7 breast cancer cell proliferation ([3H]thymidine incorporation); assay type: cell-based; settings: % of the activity of 1α,25-(OH)2D3 at 50% of its activity (B50); human breast cancer cells
Description: as §1

[6] = test system: MG-63 cells; assay: MG-63 osteosarcoma cells, osteocalcin secretion; assay type: cell-based; settings: % of the activity of 1α,25-(OH)2D3 at 50% of its activity (B50); human osteosarcoma cells
Description: as §1

[7] = target: T2, human DBP (vitamin D binding protein) (Homo sapiens, UniProt P02774); assay: Relative affinity for purified human vitamin D-binding protein (hDBP); settings: % of the activity of 1α,25-(OH)2D3 at 50% of its activity (B50)
T2 sequence (P02774 17-474): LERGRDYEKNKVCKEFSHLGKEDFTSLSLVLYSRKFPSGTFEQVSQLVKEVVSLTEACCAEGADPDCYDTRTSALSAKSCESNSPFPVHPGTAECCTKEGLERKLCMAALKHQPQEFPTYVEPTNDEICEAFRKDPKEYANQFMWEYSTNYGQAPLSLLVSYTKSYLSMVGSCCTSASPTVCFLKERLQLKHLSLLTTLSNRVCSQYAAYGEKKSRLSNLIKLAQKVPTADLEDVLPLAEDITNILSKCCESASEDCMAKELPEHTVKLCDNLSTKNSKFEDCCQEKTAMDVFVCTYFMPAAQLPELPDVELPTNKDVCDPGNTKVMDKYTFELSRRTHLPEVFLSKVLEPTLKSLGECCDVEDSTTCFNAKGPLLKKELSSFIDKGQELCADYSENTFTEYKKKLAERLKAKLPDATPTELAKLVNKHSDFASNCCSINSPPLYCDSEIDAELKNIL

| SMILES | Affinity for pig receptor [1] | Cell differentation/cell proliferation HL-60 [2] | Cell differentation/cell proliferation keratinocytes [3] | Ca serum chick [4] | Cell differentation/cell proliferation MCF-7 [5] | Cell differentation/cell proliferation MG-63 [6] | Affinity for human DBP [7] |
| --- | --- | --- | --- | --- | --- | --- | --- |
| CCC(O)(C#CCC(C)C1CCC2C(=CC=C3CC(O)CC(O)C3)CCCC21C)CC (stereo not drawn) [Compound 48] | 40% | 2200% | 350% | 1% | 1500% | 800% | 0.3% |
| CC(CCCC(C)(C)O)C(C)C1(C)CCCC(=CC=C2CC(O)CC(O)C2)C1 (stereo not drawn) [Compound 8] | 45% | >1000% |  | <0.1% | 3000% | 300% | 3% |
| C=C1C(=CC=CCC2(C)CCC(CCCCC(O)(CC)CC)C2(C)C)CC(O)CC1O (stereo not drawn) [Compound 20] | 28% | 75% |  |  |  | 30% | 8% |
| C=C1/C(=C\C=C\[C@@H]2CC[C@](C)(CCCCC(O)(CC)CC)C2(C)C)C[C@@H](O)C[C@@H]1O [Compound 38] | 80% | 100% |  | 2% |  |  | 2% |
| C=C1C(=CC=CCC2(C)CCC(CCCCC(C)(C)O)C2(C)C)CC(O)CC1O (stereo not drawn) [Compound 19] | 13% | 10% |  |  |  | 30% | 50% |
| C=C1C(=CC=CCC2(C)CCC(OCCC(O)(CC)CC)C2(C)C)CC(O)CC1O (stereo not drawn) [Compound 18] | 4% | 10% | 35% | <0.1% | 40% |  | 0% |
| C=C1C(=CC=CCC2(C)CCC(CCCC(O)(CC)CC)C2(C)C)CC(O)CC1O (stereo not drawn) [Compound 16] | 15% | 12% | 30% | 0.2% |  | 10% | 0% |
| CCC(O)(C=CC=CC(C)C1CCC2C(=CC=C3CC(O)CC(O)C3)CCCC21C)CC (stereo not drawn) [Compound 50] | 9% | 40% | 60% | 0.1% | 100% |  | 0% |
| C=C1C(=CC=CC2CCCC(C(C)CCCC(C)(C)O)C2(C)C)CC(O)CC1O (stereo not drawn) [Compound 56] |  | 100% |  |  |  |  | 70% |
